# Measured values from US4477664A, “Novel 1-(4-piperidiniobenzyl)-2,3-dioxopiperazine derivatives or acid addition salts thereof” (Toyama Chemical Co., Ltd., priority 1979, dated 1984).
# Columns and labels:
# HeLa S3 cells = experiment: MIC value against HeLa S3 cells (microplate method); assay type: cell-based; settings: Homo sapiens, 96 h, 2×10^4 cells/ml, 4 days, Giemsa staining
# Excerpt: (§1) a. MIC value against HeLa S3 cells and Ehrlich cells (microplate method) Number of cells: 2×10^4 cells/ml Culture medium: Eagle's MEM+20% calf embryonic serum Culture time: 4 days Judgement: Giemsa staining
# Ehrlich cells = experiment: MIC value against Ehrlich cells (microplate method); assay type: cell-based; settings: 96 h, 2×10^4 cells/ml, 4 days, Giemsa staining
# Excerpt: as §1
# [1] = system: Ehrlich ascites carcinoma cells; experiment: Effect on Ehrlich carcinoma (i): intraperitoneal inoculation, mean survival days; assay type: in vivo, ICR-strain mice; settings: Mus musculus, ip, 168 h, once a day for 7 days, read-out: T/C (mean survival days)
# Description: (i) Ehrlich ascites carcinoma cells (1×10^6 cells/head) were inoculated intraperitoneally into ICR-strain mice (female, 6 to 7 weeks old, each group consisting of 5 or 4 mice), and after 24 hours, the […] The effect thereof was judged from the mean survival days.
# The test drugs were used in the form of a solution or suspension in a saline solution or a 0.3% carboxymethyl cellulose-containing saline solution. [formula]
# Acute toxicity = settings: mouse, in vivo, ip
# Excerpt: The test drugs were used in the form of a solution or suspension in a saline solution or a 0.3% carboxymethyl cellulose-containing saline solution.
# [2] = system: Sarcoma 180 ascites cells; experiment: Effect on Sarcoma 180 carcinoma: intraperitoneal inoculation, mean survival days; assay type: in vivo, ICR-strain mice; settings: 200 mg/kg, once a day for 7 days
# Description: Sarcoma 180 ascites cells (1×10^6 cells/head) were inocualted intraperitoneally into ICR-strain mice (female, 6 weeks old, each group consisting of 4 or 5 mice), and after 24 hours, the intraperitoneal administration of a test drug was started, and effected once a day for 7 days. The effect thereof was judged from the mean survival days. The test drug was used in the form of a solution or suspension in a saline solution or a 0.3% carboxymethyl cellulose-containing saline solution. [formula]
# [3] = system: Ehrlich ascites carcinoma cells; experiment: Effect on Ehrlich carcinoma (ii): subcutaneous inoculation at inguinal region, mean tumor weight; assay type: in vivo, ICR-strain mice; settings: intraperitoneally, once a day for 5 days, judgement day 13
# Description: (ii) Ehrlich ascites carcinoma cells (4×10^6 cells/head) were inoculated subcutaneously at the inguinal region into ICR-strain mice (female, 6 to 7 weeks old, each group consisting of 5 or 4 mice), and after 24 hours, the intraperitaneal or oral administration of a test drug was started and effected once a day for 5 days. The effect thereof was judged from the mean weight of tumor on the 13th or 15th day, respectively.
# The test drug was used in the form of a solution or suspension in a saline solution or a 0.3% carboxymethyl cellulose-containing saline solution. [formula]
# [4] = system: Ehrlich ascites carcinoma cells; experiment: Effect on Ehrlich carcinoma (iii): subcutaneous inoculation at right armpit, mean tumor weight; assay type: in vivo, ICR-strain mice; settings: 100 mg/kg, orally, once a day for 7 days, 14th day
# Description: (iii) Ehrlich ascites carcinoma cells (4×10^6 cells/head) were inoculated subcutaneously at the right armpit region into ICR-strain mice (female, 7 weeks old, each group consisting of 6 or 7 mice), and after 24 hours, the oral administration or subcutaneous administration at the dorsal region of a test drug was started, and effected once a day for 7 days. The effect thereof was judged from the mean weight of the tumor on the 14th day. The test drug was used in the form of a solution or suspension in a saline solution or a 0.3% carboxymethyl cellulose-containing saline solution.
# T/C was calculated in the same manner as in above (ii).
# L-1210 ascites cells = experiment: Effect on L-1210 leukemia (i): intraperitoneal inoculation, mean survival days; assay type: in vivo, BDF1-strain mice; settings: 50 mg/kg
# Description: (i) L-1210 ascites cells (1×10^5 cells/head) were inoculated intraperitoneally into BDF1 -strain mice (female, 6 weeks old, each group consisting of 4 mice), and after 24 hours, the intraperitoneal administration of a test drug was started and effected once a day. The effect thereof was judged from the mean survival days. The test drug was used in the form of a solution or suspension in a saline solution or a 0.3% carboxymethyl cellulose-containing saline solution.
# T/C was calculated in the same manner as in above b (i).
# [5] = intraperitoneal, once, male mice, observed for 7 days
SMILES,MIC (HeLa S3 cells) [µg/mL],MIC (Ehrlich cells) [µg/mL],other results
O=C1C(=O)N(Cc2cnccn2)CCN1Cc1ccc(Nc2ncccn2)cc1 [Compound 9],1.56 to 3.13,6.25,–
CCCCCCN1CCN(Cc2ccc(N(CC)CC)cc2Cl)C(=O)C1=O [Compound 30],3.13,3.13,response vs control in vivo at 100 mg/kg [1]: 152%
COC(=O)c1ccc(CN2CCN(Cc3ccc(Nc4ncccn4)cc3)C(=O)C2=O)cc1 [Compound 17],6.25,6.25,–
CC=CC=CCN1CCN(Cc2ccc(N(CC)CC)cc2)C(=O)C1=O [Compound 27],6.25,6.25,–
O=C1C(=O)N(c2ccccc2)CCN1Cc1ccc(Nc2ncccn2)cc1 [Compound 12],0.78,0.78,LD50 at 168 h (Acute toxicity; [5]): > 500 mg/kg
CCCCCCN1CCN(Cc2ccc(Nc3ccccn3)cc2)C(=O)C1=O [Compound 1],0.2,0.2,response vs control in vivo at 200 mg/kg [1]: > 221%; LD50 at 168 h (Acute toxicity): > 500 mg/kg; T/C (mean survival days) [2]: > 151.6%; Survival Ratio in Days Shown in Parenthesis ([2]; 35 days): 2/4
O=C1C(=O)N(CC2CCCCC2)CCN1Cc1ccc(Nc2ncccn2)cc1 [Compound 11],1.56,1.56,–
O=C1C(=O)N(Cc2ccc(Nc3ccc([N+](=O)[O-])cn3)cc2)CCN1Cc1ccccc1 [Compound 3],3.13 to 6.25,6.25,–
CCCCCCN1CCN(Cc2ccc(Nc3ccncn3)cc2)C(=O)C1=O [Compound 19],1.56,1.56,LD50 at 168 h (Acute toxicity; [5]): > 500 mg/kg
O=C1C(=O)N(Cc2ccc(Nc3ccccn3)cc2)CCN1Cc1ccccc1 [Compound 2],0.39 to 0.78,0.39 to 0.78,response vs control in vivo at 100 mg/kg [1]: > 192%; LD50 at 168 h (Acute toxicity; [5]): > 200 mg/kg
CCN(CC)c1ccc(CN2CCN(Cc3ccccn3)C(=O)C2=O)cc1 [Compound 38],25,25,response vs control in vivo at 100 mg/kg [1]: 160%
O=C1C(=O)N(Cc2ccc(Nc3ncccn3)cc2)CCN1CCCc1ccccc1 [Compound 15],1.56,1.56,LD50 at 168 h (Acute toxicity; [5]): > 500 mg/kg
O=C1C(=O)N(Cc2ccc(Nc3ccncn3)cc2)CCN1Cc1ccccc1 [Compound 20],0.78,1.56,LD50 at 168 h (Acute toxicity; [5]): > 500 mg/kg
O=C1C(=O)N(Cc2ccc(Nc3ncccn3)cc2)CCN1Cc1ccc(Cl)cc1 [Compound 16],1.56,1.56,–
O=C1C(=O)N(Cc2ccc(Nc3ccccn3)cc2)CCN1Cc1ccc(Nc2ccccn2)cc1 [Compound 24],3.13,3.13,–
CCN(CC)c1ccc(CNCCN2CCN(Cc3ccc(N(CC)CC)cc3)C(=O)C2=O)cc1 [Compound 40],12.5,12.5,response vs control in vivo at 30 mg/kg ([1]; 30 mg/kg): 154%
Cc1ccc(Nc2ccc(CN3CCN(Cc4ccccc4)C(=O)C3=O)cc2)nc1 [Compound 25],0.39,0.39,–
O=C1C(=O)N(Cc2ccc(Nc3ncccn3)cc2)CCN1CCc1ccccc1 [Compound 14],0.39,0.39,response vs control in vivo at 100 mg/kg [1]: > 179%; LD50 at 168 h (Acute toxicity; [5]): > 500 mg/kg
Nc1cccc(CN2CCN(Cc3ccc(Nc4ncccn4)cc3)C(=O)C2=O)n1 [Compound 10],1.56 to 3.13,12.5,–
CCN(CC)c1ccc(CN2CCN(CCN)C(=O)C2=O)cc1 [Compound 37],25,25,T/C (mean tumor weight) ([3]; 25 mg/kg): 54%; T/C (mean tumor weight) ([3]; 50 mg/kg): 52%; T/C (mean tumor weight) ([3]; 100 mg/kg): 65%

SMILES,MIC (HeLa S3 cells) [µg/mL],MIC (Ehrlich cells) [µg/mL],other results
Nc1cnc(Nc2ccc(CN3CCN(Cc4ccccc4)C(=O)C3=O)cc2)nc1 [Compound 45],0.05,0.05,–
CCCCCCN1CCN(Cc2ccc(N(CC)CC)c(C)c2)C(=O)C1=O [Compound 29],12.5,12.5,response vs control in vivo at 100 mg/kg [1]: 184%
Cc1nc(Nc2ccc(CN3CCN(Cc4ccccc4)C(=O)C3=O)cc2)ccc1N [Compound 42],< 0.05,< 0.05,response vs control in vivo at 50 mg/kg [1]: 149%; T/C (mean tumor weight) [4]: 54%; T/C (mean survival days) (L-1210 ascites cells; 7 administrations): 148%; LD50 at 168 h (Acute toxicity; [5]): > 200 mg/kg
Cc1cc(Nc2ccc(CN3CCN(Cc4ccccc4)C(=O)C3=O)cc2)ncc1N [Compound 43],< 0.05,< 0.05,T/C (mean survival days) (L-1210 ascites cells; 7 administrations): 143%; LD50 at 168 h (Acute toxicity; [5]): > 200 mg/kg
CCCCCCN1CCN(Cc2ccc(N(CC)CC)c(Cl)c2)C(=O)C1=O [Compound 28],12.5,12.5,response vs control in vivo at 40 mg/kg [1]: > 173%; response vs control in vivo at 100 mg/kg [1]: 165%
CCCCCCN1CCN(Cc2ccc(Nc3ccncc3)cc2)C(=O)C1=O [Compound 5],3.13,3.13,–
CCCCCCN1CCN(Cc2ccc(Nc3cnccn3)cc2)C(=O)C1=O [Compound 21],1.56,1.56,–
O=C1C(=O)N(Cc2ccc(Nc3ncccn3)cc2)CCN1Cc1ccc(Nc2ncccn2)cc1 [Compound 23],6.25,6.25,response vs control in vivo at 100 mg/kg [1]: 159%
CCCCCCN1CCN(Cc2ccc(N3CCCCC3)cc2)C(=O)C1=O [Compound 31],3.13,3.13,–
CC(c1ccccc1)N1CCN(Cc2ccc(Nc3ncccn3)cc2)C(=O)C1=O (stereo not shown) [Compound 18],3.13,6.25,–
CCCCCCN1CCN(Cc2ccc(NCC)cc2)C(=O)C1=O [Compound 32],6.25,6.25,–
CC(c1ccc(Nc2ncccn2)cc1)N1CCN(Cc2ccccc2)C(=O)C1=O (stereo not shown) [Compound 22],3.13 to 6.25,6.25,–
Cc1cc(Nc2ccc(CN3CCN(Cc4ccccc4)C(=O)C3=O)cc2)nc(C)c1N [Compound 44],0.78,0.78,T/C (mean survival days) (L-1210 ascites cells; 3 administrations): 137%; LD50 at 168 h (Acute toxicity; [5]): > 200 mg/kg
CCCCCCN1CCN(Cc2ccc(N(CC)CC)cc2)C(=O)C1=O [Compound 26],3.13,3.13,response vs control in vivo at 40 mg/kg [1]: 157%; T/C (mean tumor weight) ([3]; 6.25 mg/kg): 64%; T/C (mean tumor weight) ([3]; 12.5 mg/kg): 67%; T/C (mean tumor weight) ([3]; 25 mg/kg): 61%
CCN(CC)c1ccc(CN2CCN(Cc3cccnc3)C(=O)C2=O)cc1 [Compound 39],25,25,response vs control in vivo at 100 mg/kg [1]: > 164%
CCCCCCN1CCN(Cc2ccc(NC(C)C)cc2)C(=O)C1=O [Compound 33],0.78,0.78,–
CCCCCCN1CCN(Cc2ccc(NCc3ccncc3)cc2)C(=O)C1=O [Compound 35],6.25,6.25,response vs control in vivo at 50 mg/kg [1]: 146%; response vs control in vivo at 100 mg/kg [1]: > 187%
CCCCCCN1CCN(Cc2ccc(NC(=O)CCl)cc2)C(=O)C1=O [Compound 34],0.39,0.39,response vs control in vivo at 100 mg/kg [1]: > 142%; response vs control in vivo at 200 mg/kg [1]: 157%
CCN(CC)c1ccc(CN2CCN(Cc3cnc(Cl)nc3Cl)C(=O)C2=O)cc1 [Compound 36],12.5,12.5,response vs control in vivo at 40 mg/kg [1]: > 190%; response vs control in vivo at 100 mg/kg [1]: 204%
O=C1C(=O)N(c2cnccn2)CCN1Cc1ccc(Nc2ncccn2)cc1 [Compound 8],0.78,0.39,–
